Results published in patent publication US5290926A, “Isolated DNA Encoding plant histidinol dehydrogenase” (Ciba-Geigy Corporation, priority 1990, dated 1994).
Read-outs that look alike come from different tables or passages of the source.

B1: histidinol dehydrogenase from cabbage (Brassica oleracea var. capitata) (protein)
chain: SMKSYRLSELSFSQVENLKARPRIDFSSIFTTVNPIIDAVRSKGDTAVKEYTERFDKVQLNKVVEDVSELDIPELDSAVKEAFDVAYDNIYAFHFAQMSTEKSVENMKGVRCKRVSRSIGSVGLYVPGGTAVLPSTALMLAIPAQIAGCKTVVLATPPTKEGSICKEVLYCAKRAGVTHILKAGGAQAIAAMAWGTDSCPKVEKIFGPGNQYVTAAKMILQNSEAMVSIDMPAGPSEVLVIADEHASPVYIAADLLSQAEHGPDSQVVLVVVGDGVNLKAIEEEIAKQCKSLPRGEFASKALSHSFTVFARDMIEAITFSNLYAPEHLIINVKDAEKWEGLIENAGSVFIGPWTPESVGDYASGTNHVLPTYGYARMYSGVSLDSFLKFMTVQSLTEEGLRNLGPYVATMAEIEGLDAHKRAVTLRLKDIEAKQTQTK
notes: Spring cabbage heads are homogenized using a kitchen mixer; from tissue; host or cells: mature spring cabbage heads

Experiments:
[1] = biological target: T1, histidinol dehydrogenase from cabbage (Brassica oleracea var. capitata, UniProt P24226); assay: Histidinol dehydrogenase enzyme assay (spectrophotometric, NAD+ reduction at 340 nm); type: biochemical; details: for Relative Activity: metal ion 0.5 mM, activity after 3 min reaction time, None = 100
T1 construct: Spring cabbage heads are homogenized using a kitchen mixer; from tissue; host or cells: mature spring cabbage heads
T1 sequence (P24226 32-469): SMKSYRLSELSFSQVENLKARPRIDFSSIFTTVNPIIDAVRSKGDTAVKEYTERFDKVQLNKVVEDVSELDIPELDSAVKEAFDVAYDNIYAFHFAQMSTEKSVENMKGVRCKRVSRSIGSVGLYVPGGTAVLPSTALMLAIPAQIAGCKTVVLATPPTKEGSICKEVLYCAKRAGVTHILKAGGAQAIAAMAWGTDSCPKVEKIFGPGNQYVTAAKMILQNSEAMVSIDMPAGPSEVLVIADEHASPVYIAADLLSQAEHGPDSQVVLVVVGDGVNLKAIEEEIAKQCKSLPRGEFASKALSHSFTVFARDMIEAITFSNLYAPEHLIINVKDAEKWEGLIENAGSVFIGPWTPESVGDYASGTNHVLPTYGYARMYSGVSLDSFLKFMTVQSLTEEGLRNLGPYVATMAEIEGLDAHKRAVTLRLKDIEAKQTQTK
Description: (§1) […]
(§2) The enzyme activity is assayed spectrophotometrically by measuring the increase in absorbance at 340 nm due to the reduction of NAD+in a Hitachi U-3120 spectrophotometer. The reaction mixture contained 150 mM Gly/NaOH buffer, pH9.2, 0.5 mM, MnCl2, 2 mM NAD +, 5 mM histidinol, and 2-5 mU of enzyme sample in total volume of 0.5 ml. The reaction is started with the addition of histidinol, and incubated at 30° C. A reference sample containing water instead of histidinol is always run. One unit of enzyme catalyzing the formation of […] of NADH per min under the assay conditions.

[2] = system: histidinol dehydrogenase from wheat germ; details: cited from earlier work
[3] = system: histidinol dehydrogenase from S. typhimurium; details: cited from earlier work
[4] = substrate: NC(=O)c1ccc[n+]([C@@H]2O[C@H](COP(=O)([O-])OP(=O)(O)OC[C@H]3O[C@@H](n4cnc5c(N)ncnc54)[C@H](O)[C@@H]3O)[C@@H](O)[C@H]2O)c1; assay: Histidinol dehydrogenase enzyme assay (spectrophotometric, NAD+ reduction at 340 nm); type: biochemical, cabbage (Brassica oleracea); details: other: standard assay conditions; pH 9.2; 30.0 °C
Description: as §1, §2

[5] = substrate: N[C@H](CO)Cc1c[nH]cn1; assay: purified protein, by the assay type; details: other: standard assay conditions; pH 9.2; 30.0 °C
[6] = reaction buffer 150 mM Gly/NaOH, pH9.2

Molecule | Relative Activity [1] [%] | influence of divalent metal ion on the enzyme reaction (in words) [1, 6] | further results
[Ba+2] [Ba^2+] | 65 | caused inhibition | –
[Ca+2] [Ca^2+] | 36 | caused inhibition | –
[Cu+2] [Cu^2+] | 24 | caused inhibition | –
N[C@H](CO)Cc1c[nH]cn1 [L-histidinol] | – | – | Km ([2]; read-out: Km of the partially purified enzyme from wheat germ for L-histidinol): 8.8 µM; Km ([3]; read-out: Km of the pure enzyme from S. typhimurium for L-histidinol, pure enzyme): 16 µM
[Mg+2] [Mg^2+] | 54 | caused inhibition | –
[Mn+2] [Mn^2+] | 126 | stimulation of the enzyme activity | effect of metal ion on the reaction catalyzed by the S. typhimurium enzyme (in words) [3]: stimulated; stimulation of the reaction compared to control without any divalent metal ion [1, 6]: 26%
NC(=O)c1ccc[n+]([C@@H]2O[C@H](COP(=O)([O-])OP(=O)(O)OC[C@H]3O[C@@H](n4cnc5c(N)ncnc54)[C@H](O)[C@@H]3O)[C@@H](O)[C@H]2O)c1 [NAD+] | – | – | Km ([2]; partially purified enzyme, read-out: Km of the enzyme from wheat germ for NAD+): 140 µM; Km ([3]; read-out: Km of the enzyme from S. typhimurium for NAD+): 1000 µM
[Ni+2] [Ni^2+] | 46 | caused inhibition | –
[Zn+2] [Zn^2+] | 34 | caused inhibition | –
B1 | – | – | Km [4]: 42 µM; Km [5]: 15.5 µM
